Test results: patent publication US11479563B2, “Biphenyl compound or salt thereof” (TAIHO PHARMACEUTICAL CO., LTD., priority 2017, dated 2022)
Where a name gives a salt, the structure may show the parent alone.

What was measured:
[1] = system: NCI-H146 cells (human small-cell lung cancer cell lines); assay: Cell-growth inhibition test: NCI-H146 cells; assay type: cell-based; details: Homo sapiens, NCI-H146, read-out: Cell-Growth Inhibition Test: NCI-H146 Cells IC50 (nM)
Method: Under the following conditions, an in vitro cell-growth inhibition test was performed with respect to HEL cells (human acute myelocytic leukemia cell lines), NCI-H1417 cells (human small-cell lung cancer cell lines), and NCI-H146 cells (human small-cell lung cancer cell lines).
The cells with the compound of the present invention or with dimethylsulfoxide alone were cultured at 37° C. in a 5% carbon-dioxide-containing incubator for 5 days (HEL cells) or 10 days (NCI-H1417 cells and NCI-H146 cells). After culture, the plate was allowed to stand at room temperature for 30 minutes, and 100 μL of the supernatant was removed from each well to leave 100 μL of the cell culture solution. To each well containing the remaining 100 μL of the cell culture solution, the same amount of CellTiter-Glo 2.0 Assay (Promega, Cat #: G9242) was added. The microplate was shaken with a plate mixer for 1 minute and then allowed to stand in a dark place for 10 minutes. Thereafter, the luminescence intensity of viable cells in each well was measured using a microplate reader (PerkinElmer, EnSpire). […] Cell growth rate (%)=T/C×100 T: The luminescence intensity in a well to which the compound of the present invention was added (count per second) C: The luminescence intensity in a well to which dimethylsulfoxide alone was added (count per second)

[2] = system: NCI-H1417 cells (human small-cell lung cancer cell lines); assay: cells; details: NCI-H1417, read-out: Cell-Growth Inhibition Test: NCI-H1417 Cells IC50 (nM);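 also: growth of NCI-H1417 cells over 10 days at 37 °C, read as viable-cell luminescence by CellTiter-Glo 2.0, expressed as % of DMSO-only control wells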
[3] = system: HEL cells (human acute myelocytic leukemia cell lines); assay: cells; details: read-out: Cell-Growth Inhibition Test: HEL Cells IC50 (nM);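 also: viable cell count by CellTiter-Glo 2.0 luminescence after 5 days of culture at 37 °C, growth expressed relative to DMSO-only wells as 100%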

| SMILES | IC50 [1] | IC50 [2] | IC50 [3] |
| --- | --- | --- | --- |
| N#Cc1ccc(-c2cc(C(=O)N3[C@@H]4CC[C@H]3C[C@@H](N)C4)ccc2-c2cc3nnn(CC4(O)CCC4)c3c(Cl)c2F)cc1F [Example 259, 5′-((3-endo)-3-amino-8-azabicyclo[3.2.1]octane-8-carbonyl)-2′-(7-chloro-6-fluoro-1-((1-hydroxycyclobutyl)methyl)-1H-benzo[d][1,2,3]triazol-5-yl)-3-fluoro-[1,1′-biphenyl]-4-carbonitrile] | 2.08 nM | 0.46 nM | 0.58 nM |
| COc1c(F)c(-c2ccc(C(=O)N3[C@@H]4CC[C@H]3C[C@@H](N)C4)cc2-c2ccc(C#N)c(F)c2)cc2cnn(CC(C)(C)O)c12 [Example 186, 5′-((3-endo)-3-amino-8-azabicyclo[3.2.1]octane-8-carbonyl)-3-fluoro-2′-(6-fluoro-1-(2-hydroxy-2-methylpropyl)-7-methoxy-1H-indazol-5-yl)-[1,1′-biphenyl]-4-carbonitrile] | 3.21 nM | 5.95 nM | 5.3 nM |
| CC(C)(O)Cn1nnc2cc(-c3ccc(CN4C5CCC4C(N)C5)cc3-c3ccc(C#N)c(F)c3)c(F)c(Br)c21 [Example 294, 5′-(((1S,2S,4R)-rel-2-amino-7-azabicyclo[2.2.1]heptan-7-yl)methyl)-2′-(7-bromo-6-fluoro-1-(2-hydroxy-2-methylpropyl)-1H-benzo[d][1,2,3]triazol-5-yl)-3-fluoro-[1,1′-biphenyl]-4-carbonitrile-isomer-X dihydrochloride] | 4.05 nM | 0.055 nM | 0.04 nM |
| CC(C)(O)Cn1ncc2cc(-c3ccc(C(=O)N4[C@@H]5CC[C@H]4C[C@@H](N)C5)cc3-c3ccc(C#N)c(F)c3)c(F)c(F)c21 [Example 188, 5′-((3-endo)-3-amino-8-azabicyclo[3.2.1]octane-8-carbonyl)-2′-(6,7-difluoro-1-(2-hydroxy-2-methylpropyl)-1H-indazol-5-yl)-3-fluoro-[1,1′-biphenyl]-4-carbonitrile] | 1.58 nM | 1.96 nM | 1.95 nM |
| Cc1c(F)c(-c2ccc(C(=O)N3C4CCC3C(N)C4)cc2-c2ccc(C#N)c(F)c2)cc2nnn(CC(C)(C)O)c12 [Example 228, 5′-((1S,2S,4R)-rel-2-amino-7-azabicyclo[2.2.1]heptane-7-carbonyl)-3-fluoro-2′-(6-fluoro-1-(2-hydroxy-2-methylpropyl)-7-methyl-1H-benzo[d][1,2,3]triazol-5-yl)-[1,1′-biphenyl]-4-carbonitrile-isomer-X] | 0.51 nM | 0.3 nM | 0.68 nM |
| CC(C)(O)Cn1nnc2cc(-c3ccc(C(=O)N4[C@@H]5CC[C@H]4C[C@@H](N)C5)cc3-c3ccc(C#N)c(F)c3)c(F)c(Br)c21 [Example 275, 5′-((3-endo)-3-amino-8-azabicyclo[3.2.1]octane-8-carbonyl)-2′-(7-bromo-6-fluoro-1-(2-hydroxy-2-methylpropyl)-1H-benzo[d][1,2,3]triazol-5-yl)-3-fluoro-[1,1′-biphenyl]-4-carbonitrile] | 1.78 nM | 0.59 nM | 0.99 nM |
| Cc1nn(CC(C)(C)O)c2cc(F)c(-c3ccc(C(=O)N4[C@@H]5CC[C@H]4C[C@@H](N)C5)cc3-c3ccc(C#N)c(F)c3)cc12 [Example 181, 5′-((3-endo)-3-amino-8-azabicyclo[3.2.1]octane-8-carbonyl)-3-fluoro-2′-(6-fluoro-1-(2-hydroxy-2-methylpropyl)-3-methyl-1H-indazol-5-yl)-[1,1′-biphenyl]-4-carbonitrile] | 2.93 nM | 4.6 nM | 9.06 nM |
| N#Cc1ccc(-c2cc(C(=O)N3C4CCC3C(N)C4)ccc2-c2cc3nnn(CC4(O)CCC4)c3c(C#N)c2F)cc1F [Example 264, 5-(5-((1S,2S,4R)-rel-2-amino-7-azabicyclo[2.2.1]heptane-7-carbonyl)-4′-cyano-3′-fluoro-[1,1′-biphenyl]-2-yl)-6-fluoro-1-((1-hydroxycyclobutyl)methyl)-1H-benzo[d][1,2,3]triazole-7-carbonitrile-isomer-X] | 0.96 nM | 0.3 nM | 0.84 nM |
| N#Cc1ccc(-c2cc(CN3C4CCC3C(N)C4)ccc2-c2cc3nnn(CC4(O)CCC4)c3c(Cl)c2F)cc1F [Example 286, 5′-(((1S,2S,4R)-rel-2-amino-7-azabicyclo[2.2.1]heptan-7-yl)methyl)-2′-(7-chloro-6-fluoro-1-((1-hydroxycyclobutyl)methyl)-1H-benzo[d][1,2,3]triazol-5-yl)-3-fluoro-[1,1′-biphenyl]-4-carbonitrile-isomer-X dihydrochloride] | 0.17 nM | 0.083 nM | 0.036 nM |
| CCC(O)(CC)Cn1nnc2cc(-c3ccc(CN4C5CCC4C(N)C5)cc3-c3ccc(C#N)c(F)c3)c(F)c(Br)c21 [Example 295, 5′-(((1S,2S,4R)-rel-2-amino-7-azabicyclo[2.2.1]heptan-7-yl)methyl)-2′-(7-bromo-1-(2-ethyl-2-hydroxybutyl)-6-fluoro-1H-benzo[d][1,2,3]triazol-5-yl)-3-fluoro-[1,1′-biphenyl]-4-carbonitrile-isomer-X dihydrochloride] | 0.24 nM | 0.066 nM | 0.049 nM |
| CC(C)(O)Cn1nnc2cc(-c3ccc(C(=O)N4[C@@H]5CC[C@H]4C[C@@H](N)C5)cc3-c3ccc(C#N)c(F)c3)c(F)c(F)c21 [Example 161] | 1.09 nM | 2.49 nM | 6.88 nM |
| Cc1c(F)c(-c2ccc(C(=O)N3[C@@H]4CC[C@H]3C[C@@H](N)C4)cc2-c2ccc(C#N)c(F)c2)cc2nnn(CC(C)(C)O)c12 [Example 240, 5′-((3-endo)-3-amino-8-azabicyclo[3.2.1]octane-8-carbonyl)-3-fluoro-2′-(6-fluoro-1-(2-hydroxy-2-methylpropyl)-7-methyl-1H-benzo[d][1,2,3]triazol-5-yl)-[1,1′-biphenyl]-4-carbonitrile] | 4.81 nM | 2.55 nM | 4.2 nM |
| CC(C)(O)Cn1nnc2cc(-c3ccc(C(=O)N4C5CCC4C(N)C5)cc3-c3ccc(C#N)c(F)c3)c(F)c(Cl)c21 [Example 209, 5′-((1S,2S,4R)-rel-2-amino-7-azabicyclo[2.2.1]heptane-7-carbonyl)-2′-(7-chloro-6-fluoro-1-(2-hydroxy-2-methylpropyl)-1H-benzo[d][1,2,3]triazol-5-yl)-3-fluoro-[1,1′-biphenyl]-4-carbonitrile-isomer-X] | 0.22 nM | 0.18 nM | 0.24 nM |
| CC(C)(O)CCn1ncc2cc(-c3ccc(C(=O)N4[C@@H]5CC[C@H]4C[C@@H](N)C5)cc3-c3ccc(C#N)c(F)c3)c(F)cc21 [Example 194, 5′-((3-endo)-3-amino-8-azabicyclo[3.2.1]octane-8-carbonyl)-3-fluoro-2′-(6-fluoro-1-(3-hydroxy-3-methylbutyl)-1H-indazol-5-yl)-[1,1′-biphenyl]-4-carbonitrile] | 11.3 nM | 5.63 nM | 15.5 nM |
| CC(C)(O)Cn1ccc2cc(-c3ccc(CN4C5CCC4C(N)C5)cc3-c3ccc(C#N)c(F)c3)c(F)cc21 [Example 289, 5′-(((1S,2S,4R)-rel-2-amino-7-azabicyclo[2.2.1]heptan-7-yl)methyl)-3-fluoro-2′-(6-fluoro-1-(2-hydroxy-2-methylpropyl)-1H-indol-5-yl)-[1,1′-biphenyl]-4-carbonitrile-isomer-X dihydrochloride] | 0.97 nM | 0.094 nM | 0.038 nM |
| CC(C)(O)Cc1ccc(-c2ccc(CN3C4CCC3C(N)C4)cc2-c2ccc(C#N)c(F)c2)c(F)c1 [Example 290, 5′-(((1S,2S,4R)-rel-2-amino-7-azabicyclo[2.2.1]heptan-7-yl)methyl)-2″,3-difluoro-4″-(2-hydroxy-2-methylpropyl)-[1,1′:2′,1″-terphenyl]-4-carbonitrile-isomer-X dihydrochloride] | 2.12 nM | 1.06 nM |  |
| CC(C)(O)Cn1nnc2cc(-c3ccc(C(=O)N4C5CCC4C(N)C5)cc3-c3ccc(C#N)c(F)c3)c(F)c(Br)c21 [Example 273, 5′-((1S,2S,4R)-rel-2-amino-7-azabicyclo[2.2.1]heptane-7-carbonyl)-2′-(7-bromo-6-fluoro-1-(2-hydroxy-2-methylpropyl)-1H-benzo[d][1,2,3]triazol-5-yl)-3-fluoro-[1,1′-biphenyl]-4-carbonitrile-isomer-X] | 0.63 nM |  | 0.27 nM |
| CC(C)(O)Cn1ncc2cc(-c3ccc(CN4C5CCC4C(N)C5)cc3-c3ccc(C#N)c(F)c3)c(F)cc21 [Example 287, 5′-(((1S,2S,4R)-rel-2-amino-7-azabicyclo[2.2.1]heptan-7-yl)methyl)-3-fluoro-2′-(6-fluoro-1-(2-hydroxy-2-methylpropyl)-1H-indazol-5-yl)-[1,1′-biphenyl]-4-carbonitrile-isomer-X dihydrochloride] | 0.2 nM | 0.1 nM |  |
